Source: ChEMBL document CHEMBL1124380, “Synthesis and cytostatic activity of geiparvarin analogues” (1989)
Values after ≈ are worked out from the molar mass of the structure shown.

How the values were obtained:
Assay type in all cases: functional
[1] = Ability to inhibit human Molt/4F tumor cell proliferation by 50%; conditions: read-out: ID50 (the source's name)
Raji = test: Ability to inhibit human Raji tumor cell proliferation by 50%; conditions: read-out: ID50 (the source's name)
H9 = test: Ability to inhibit human H9 tumor cell proliferation by 50%; conditions: read-out: ID50 (the source's name)
FM3A = test: Ability to inhibit murine FM3A tumor cell proliferation by 50%; conditions: Mus musculus, read-out: ID50 (the source's name)
CCRF-CEM = test: Ability to inhibit human CEM tumor cell proliferation by 50%; conditions: read-out: ID50 (the source's name)
MT4 = test: Ability to inhibit human MT-4 tumor cell proliferation by 50%; conditions: read-out: ID50 (the source's name)
L1210 = test: Ability to inhibit murine L1210 tumor cell proliferation by 50%; conditions: Mus musculus, read-out: ID50 (the source's name)

SMILES	IC50 (Raji) [µg/mL]	IC50 (CCRF-CEM) [µg/mL]	IC50 (L1210) [µg/mL]	IC50 [1] [µg/mL]	IC50 (H9) [µg/mL]	IC50 (FM3A) [µg/mL]	IC50 (MT4) [µg/mL]
C/C(=C\COc1ccc2ccc(=O)oc2c1)C1=CC(=O)C(C)(C)O1 [GEIPARVARIN]	2.19 (≈ 6.71 µM)	2 (≈ 6.13 µM)	2.07 (≈ 6.34 µM)	2.84 (≈ 8.7 µM)	1.97 (≈ 6.04 µM)	3.2 (≈ 9.81 µM)	0.32 (≈ 0.981 µM)
CCC1OC(/C(C)=C/COc2ccc3ccc(=O)oc3c2)=CC1=O (centres undefined)	2.43 (≈ 7.45 µM)	3.27 (≈ 10 µM)	9.77 (≈ 29.9 µM)	2.84 (≈ 8.7 µM)	4.1 (≈ 12.6 µM)	17.2 (≈ 52.7 µM)	1.63 (≈ 4.99 µM)
COc1ccccc1C1=CC(=O)CO1	> 100	> 100	> 100	> 100	66.3 (≈ 349 µM)	> 100	44.4 (≈ 233 µM)
CC1=CC(=N)C(c2ccccc2)(c2ccccc2)O1	24 (≈ 96.3 µM)	29.3 (≈ 118 µM)	24.2 (≈ 97.1 µM)	25.3 (≈ 101 µM)	30 (≈ 120 µM)	25.4 (≈ 102 µM)	26.5 (≈ 106 µM)
C/C(=C\COc1ccc2ccc(=O)oc2c1)C1=CC(=N)C2(CCCCC2)O1	23.5 (≈ 64.3 µM)	4.95 (≈ 13.5 µM)	4.05 (≈ 11.1 µM)	20.5 (≈ 56.1 µM)	14.2 (≈ 38.9 µM)	15.8 (≈ 43.2 µM)	4.93 (≈ 13.5 µM)
CC1(C)OC(c2ccccc2)=CC1=N	> 100	> 100	66.4 (≈ 355 µM)	> 100	> 100	24.7 (≈ 132 µM)	76.2 (≈ 407 µM)
C/C(=C\COc1ccc2ccc(=O)oc2c1)C1=CC(=O)C(C)O1 (centres undefined)	10.4 (≈ 33.3 µM)	3.56 (≈ 11.4 µM)	7.05 (≈ 22.6 µM)	3.32 (≈ 10.6 µM)	2.91 (≈ 9.32 µM)	15.6 (≈ 49.9 µM)	2.56 (≈ 8.2 µM)
C/C(=C\COc1ccc2ccc(=O)oc2c1)C1=CC(=O)C2(CCCCC2)O1	5.43 (≈ 14.8 µM)	2.72 (≈ 7.42 µM)	1.82 (≈ 4.97 µM)	12.7 (≈ 34.7 µM)	2.08 (≈ 5.68 µM)	6.61 (≈ 18 µM)	2.1 (≈ 5.73 µM)
O=C1C=C(c2ccccc2)OC1	50.1 (≈ 313 µM)	30.2 (≈ 189 µM)	45.8 (≈ 286 µM)	31.2 (≈ 195 µM)	38.6 (≈ 241 µM)	31.4 (≈ 196 µM)	31.7 (≈ 198 µM)

The next lines start with results.

IC50 (Raji) [µg/mL]	IC50 (CCRF-CEM) [µg/mL]	IC50 (L1210) [µg/mL]	SMILES	IC50 [1] [µg/mL]	IC50 (H9) [µg/mL]	IC50 (FM3A) [µg/mL]	IC50 (MT4) [µg/mL]
> 100	> 100	> 100	CC(C)CC1=CC(=N)C(C)(C)O1	> 100	> 100	33 (≈ 197 µM)	> 100
17.9 (≈ 52.7 µM)	3.57 (≈ 10.5 µM)	4.71 (≈ 13.9 µM)	CCC1(C)OC(/C(C)=C/COc2ccc3ccc(=O)oc3c2)=CC1=N (centres undefined)	3.17 (≈ 9.34 µM)	2.58 (≈ 7.6 µM)	14.1 (≈ 41.5 µM)	2.65 (≈ 7.81 µM)
26 (≈ 79.9 µM)	18.8 (≈ 57.8 µM)	18.4 (≈ 56.6 µM)	C/C(=C\COc1ccc2ccc(=O)oc2c1)C1=CC(=N)C(C)(C)O1	25.8 (≈ 79.3 µM)	21.7 (≈ 66.7 µM)	20.7 (≈ 63.6 µM)	8.77 (≈ 27 µM)
> 100	> 100	98.3 (≈ 542 µM)	CCCCCC1=CC(=N)C(C)(C)O1	> 100	> 100	24.2 (≈ 133 µM)	> 100
16.6 (≈ 84.6 µM)	10.3 (≈ 52.5 µM)	15.8 (≈ 80.5 µM)	C/C(=C\CO)CC1=CC(=O)C(C)(C)O1	15.2 (≈ 77.5 µM)	9.13 (≈ 46.5 µM)	23.3 (≈ 119 µM)	3.05 (≈ 15.5 µM)
2.59 (≈ 7.61 µM)	2.49 (≈ 7.32 µM)	2.05 (≈ 6.02 µM)	CCC1(C)OC(/C(C)=C/COc2ccc3ccc(=O)oc3c2)=CC1=O (centres undefined)	3.02 (≈ 8.87 µM)	2.15 (≈ 6.32 µM)	2.96 (≈ 8.7 µM)	0.53 (≈ 1.56 µM)
> 100	> 100	> 100	CC(C)CC1=CC(=N)C(C)(C)O1.O=C(O)C(=O)O	> 100	> 100	33.2	> 100
89.1 (≈ 408 µM)	66.1 (≈ 303 µM)	40.4 (≈ 185 µM)	COc1ccccc1C1=CC(=O)C(C)(C)O1	53.3 (≈ 244 µM)	63.9 (≈ 293 µM)	31.7 (≈ 145 µM)	30.4 (≈ 139 µM)
